Data as given in patent US20260159499A1, “COMPOUND AS FAK INHIBITOR AND USE THEREOF” (WIGEN BIOMEDICINE TECHNOLOGY (SHANGHAI) CO., LTD., priority 2021, published 2026).
Read-outs that look alike come from different tables or passages of the source.

Assays:
FAK recombinant protein = FAK recombinant protein (Homo sapiens, UniProt Q05397); test: Inhibitory activity against FAK enzyme; type: biochemical; conditions: TK substrate, ATP
Protocol: The compound serially diluted with DMSO and a FAK recombinant protein were mixed, and the mixture was left to stand at room temperature for 10 min. A biotin-labeled TK substrate (TK) and ATP were then added. […] After the mixture was incubated at room temperature for 1 h, the fluorescence intensity at 615 nm and 665 nm was measured. The ratio of the fluorescence intensity at 665 nm and 615 nm was calculated. The inhibition percentages and IC50 of the compounds were calculated compared to the DMSO control group.

PC3 cells [1] = test: PC3 cell proliferation, 2D activity detection; type: cell-based, human; conditions: Homo sapiens, PC-3, PC3, 2D, 72 h, read-out: 2D IC50 against PC3 cells
Protocol: 2D activity detection: 1200 PC3 cells were seeded in a 96-well plate. After overnight adherence culture, the compound serially diluted was added. 72 h after addition, Cell Titer-Lumi (Beyotime C0068XL) was added to measure the ATP content in the cells. The growth of the cells was evaluated, and IC50 of the compounds against cell growth was calculated.

PC3 cells [2] = test: PC3 cell proliferation, 3D activity detection; type: cell-based, human; conditions: Homo sapiens, PC-3, 336 h, PC3, 3D culture, 14 days, read-out: 3D IC50 against PC3 cells
Protocol: 3D activity detection: PC3 cells were seeded in a 96-well plate at 1200 cells/well, and 3D culture was performed. 14 days after the compound serially diluted was added, the growth of the cells was determined. The inhibition percentage and IC50 of the compound were calculated compared to the DMSO control group.

[3] = In vivo pharmacokinetic experiment in mice; design: species or system CD-1 female mice; conditions: CD-1 mice; for AUC(0-t) / clearance / half-life / Vd / Cmax / Tmax / bioavailability: female, mouse, plasma; for Vd: read-out: Vdss; for bioavailability: oral administration 10 mg/kg vs injection
Protocol: On the day of the experiment, animals in the intravenous group were administered the corresponding compound by single injection via the tail vein at an administration volume of 10 mL/kg, and animals in the oral group were administered the corresponding compound by single intragastric injection at an administration volume of 10 mL/kg. The animals were weighed before administration, and the administration volume was calculated according to the body weight. […] About 200 μL of whole blood was collected through the orbital venous plexus at each time point and used to prepare plasma for concentration determination by high-performance liquid chromatography-tandem mass spectrometry (LC-MS/MS). The plasma concentrations were processed using a non-compartmental model of Winnolin pharmacokinetic software, and the pharmacokinetic parameters were calculated using a linear-log trapezoidal method.

PC3 cells [4] = test: Inhibition of PC3 cell adherence; type: cell-based; conditions: Homo sapiens, PC-3; PC3, 4 h treatment; read-out: Inhibitory activity against PC-3 cell adherence IC50
Protocol: PC3 cells were added at 8000 cells/well. 4 h after the cells were treated with the compound, the number of adherent cells was counted. The inhibition percentages and IC50 of the compounds were calculated compared to the DMSO group.

[5] = tested on: Human prostatic cancer PC3 cells; test: In vivo efficacy test in PC-3 model; design: species or system BALB/c nude mice; conditions: 25 mg/kg, PO, QD (21 days)
Protocol: Female BALB/c nude mice (aged 6 weeks, 18-22 g) were provided by Vital River Laboratory Animal Technology Co., Ltd. (China) and used one week after quarantine and acclimation. All animals were kept in a room at 23±2° C. with a relative humidity of 50±5%, artificial lighting was provided from 08:00 to 20:00 every day, and the air was exchanged 13-18 times per hour.
After being subcultured, the cells were collected when they reached the desired amount. 1×10^7 PC3 cells were injected into the left dorsal side of each nude mouse, and the animals were randomly grouped for administration after tumors grew to 100-200 mm^3. The mice in the solvent control group were intragastrically administered 0.5% MC-Tween-80 twice a day; the mice in the compound groups were intragastrically administered 0.5% MC-Tween-80 suspension once a day. On Tuesday and Thursday each week, tumor volumes and body weight of the mice were measured, and the nude mice were sacrificed on day 21 after the administration.
(§1) The toxicity of the compounds was evaluated according to the body weight of the mice.

[6] = tested on: Mouse colon cancer MC38 cells; test: In vivo efficacy experiment in MC38 model; design: species or system BALB/c mice; conditions: single drug 50 mg/kg, PO, QD (21 days)
Protocol: The BALB/c mice were subcutaneously injected with 1×10^6 MC38 cells on the right side to form tumors. […] The administration was then started. Tumor volumes were measured with a caliper on day 3, day 7, day 10, day 14, day 17 and day 21 after the administration.

[7] = tested on: Human pancreatic cancer Mia PaCa-2 cells; test: In vivo efficacy test in MiaPaCa-2 model; conditions: 25 mg/kg, PO, QD (21 days)
Protocol: After being subcultured, the cells were collected when they reached the desired amount. 1×10^7 Mia PaCa-2 cells were injected into the left dorsal side of each nude mouse, and the animals were randomly grouped for administration after tumors grew to 100-200 mm^3. The mice in the solvent control group were intragastrically administered 0.5% MC-Tween-80 twice a day; the mice in the compound groups were intragastrically administered 0.5% MC-Tween-80 suspension once a day. On Tuesday and Thursday each week, tumor volumes and body weight of the mice were measured, and the nude mice were sacrificed on day 21 after the administration.
as §1

[8] = injection (IV) 1 mg/kg (footnote)

Sequence of FAK recombinant protein (Q05397 whole entry, species assumed): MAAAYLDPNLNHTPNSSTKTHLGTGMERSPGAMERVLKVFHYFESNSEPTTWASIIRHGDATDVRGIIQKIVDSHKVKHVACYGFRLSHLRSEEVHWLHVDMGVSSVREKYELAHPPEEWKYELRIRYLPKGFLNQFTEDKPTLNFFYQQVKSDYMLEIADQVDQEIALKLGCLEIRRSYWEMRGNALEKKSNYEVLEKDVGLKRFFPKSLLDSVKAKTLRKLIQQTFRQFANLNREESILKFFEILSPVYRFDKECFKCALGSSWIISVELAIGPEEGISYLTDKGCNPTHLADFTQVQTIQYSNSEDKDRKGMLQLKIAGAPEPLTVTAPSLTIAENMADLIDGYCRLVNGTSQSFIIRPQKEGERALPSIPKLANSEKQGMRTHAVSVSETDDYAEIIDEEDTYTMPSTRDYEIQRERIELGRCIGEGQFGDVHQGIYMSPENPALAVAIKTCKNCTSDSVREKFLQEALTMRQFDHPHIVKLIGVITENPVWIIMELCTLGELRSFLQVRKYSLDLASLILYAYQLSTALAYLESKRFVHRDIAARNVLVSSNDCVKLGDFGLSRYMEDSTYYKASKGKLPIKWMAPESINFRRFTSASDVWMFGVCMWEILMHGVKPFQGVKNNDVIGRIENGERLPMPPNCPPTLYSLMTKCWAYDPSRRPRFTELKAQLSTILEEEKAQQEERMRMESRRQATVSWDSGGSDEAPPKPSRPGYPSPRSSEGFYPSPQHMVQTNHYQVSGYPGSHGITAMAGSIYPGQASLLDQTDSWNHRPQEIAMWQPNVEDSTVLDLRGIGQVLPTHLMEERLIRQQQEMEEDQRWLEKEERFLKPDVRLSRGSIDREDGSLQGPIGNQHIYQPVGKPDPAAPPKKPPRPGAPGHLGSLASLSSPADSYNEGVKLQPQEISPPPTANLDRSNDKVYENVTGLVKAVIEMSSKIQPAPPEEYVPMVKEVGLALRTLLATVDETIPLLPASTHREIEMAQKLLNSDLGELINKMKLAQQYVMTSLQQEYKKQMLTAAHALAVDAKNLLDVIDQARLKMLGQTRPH

IC50 (FAK recombinant protein) [nM] | IC50 (PC3 cells [2]; numeric (mean where marked *)) [nM] | IC50 (PC3 cells [4]) [nM] | IC50 (PC3 cells [1]; class symbol) [nM] | IC50 (PC3 cells [2]; class symbol) [nM] | Compound | other results
< 10 | 4.23 | – | – | – | COc1cc(C(=O)NC2CCC3(CC2)CN(C)C3)c(F)cc1Nc1ncc(C(F)(F)F)c(Oc2cccc3c2C(=O)N(C)C3)n1 [Compound 20] | IC50 (PC3 cells [1]; numeric): > 10000 nM; AUC(0-t) ([3]; injection (IV) 2 mg/kg): 622 ng·h/mL; clearance ([3]; injection (IV) 2 mg/kg): 26.8 mL/min/kg; half-life ([3]; injection (IV) 2 mg/kg): 3.46 h; Vd ([3]; injection (IV) 2 mg/kg): 4.99 L/kg; AUC(0-t) ([3]; oral administration 10 mg/kg): 934 ng·h/mL; Cmax ([3]; oral administration 10 mg/kg): 190 ng/mL; Tmax ([3]; oral administration 10 mg/kg): 2 h; half-life ([3]; oral administration 10 mg/kg): 1.97 h; bioavailability [3]: 30%
10 to 50 | 1.32 | 8.5 | – | – | COc1cc(C(=O)NC2CCC23CCN(C)CC3)c(F)cc1Nc1ncc(C(F)(F)F)c(Oc2cccc3c2C(=O)N(C)C3)n1 (stereo not shown) [Compound 21] | IC50 (PC3 cells [1]; numeric): > 10000 nM
< 10 | 41.3 | 86 | > 2000 | – | COc1cc(C(=O)N2CC3(CCN(C)CC3)C2)c(F)cc1Nc1ncc(C(F)(F)F)c(Oc2cccc3c2C(=O)N(C)C3)n1 [Compound 34] | –
< 10 | – | 2.88 | > 2000 | < 5 | COc1cc(N2CC3(CCN(C)CC3)CC2=O)c(F)cc1Nc1ncc(C(F)(F)F)c(Oc2cccc3c2C(=O)N(C)C3)n1 [Compound 62] | –
< 10 | – | 3.33 | > 2000 | 5 to 50 | COc1cc(N2CC3(CCN(C)C3)OC2=O)c(F)cc1Nc1ncc(C(F)(F)F)c(Oc2cccc3c2C(=O)N(C)C3)n1 (stereo not shown) [Compound 64] | –
< 10 | – | 7.01 | > 2000 | > 50 | COc1cc(N2CC3(CCN(C)C3)OCC2=O)c(F)cc1Nc1ncc(C(F)(F)F)c(Oc2cccc3c2C(=O)N(C)C3)n1 (stereo not shown) [Compound 66] | –
< 10 | 0.8 | 1.86 | – | – | COc1cc(N2CC3(CCN(C)CC3)C2)ccc1Nc1ncc(C(F)(F)F)c(Oc2cccc3c2C(=O)N(C)C3)n1 [Compound 90, 7-((2-((2-methoxy-4-(7-methyl-2,7-diazaspiro[3.5]non-2-yl)phenyl)amino)-5-(trifluoromethyl)pyrimidin-4-yl)oxy)-2-methylisoindolin-1-one] | IC50 (PC3 cells [1]; numeric): > 10000 nM; oral bioavailability and oral absorption properties (in words) ([3]; oral 10 mg/kg): good oral bioavailability and good oral absorption properties; AUC(0-t) [3, 8]: 812 ng·h/mL; clearance [3, 8]: 20.5 mL/min/kg; half-life [3, 8]: 3.08 h; Vd [3, 8]: 5.34 L/kg; AUC(0-t) ([3]; oral administration 10 mg/kg): 7460 ng·h/mL; Cmax ([3]; oral administration 10 mg/kg): 635 ng/mL; Tmax ([3]; oral administration 10 mg/kg): 4 h; half-life ([3]; oral administration 10 mg/kg): 2.82 h; bioavailability [3]: 92%; Change in body weight [5]: −0.5%; TGI (%) [5]: 81.65%; Change in body weight [6]: +13.54%; TGI (%) [6]: 59.02%; Change in body weight [7]: +3.67%; TGI (%) [7]: 83.72%
< 10 | 0.83 | 3.05 | – | – | COc1cc(N2CCC3(CC2)CN(C)C3)ccc1Nc1ncc(C(F)(F)F)c(Oc2cccc3c2C(=O)N(C)C3)n1 [Compound 92] | IC50 (PC3 cells [1]; numeric): > 10000 nM
< 10 | – | 2.58 | > 2000 | < 5 | COc1cc(N2CCC3(CCN(C)CC3)CC2)ccc1Nc1ncc(C(F)(F)F)c(Oc2cccc3c2C(=O)N(C)C3)n1 [Compound 94] | –
< 10 | 2.22 | 1.33 | > 2000 | – | COc1cc(N2CC3(CCN(C)CC3)C2)ccc1Nc1ncc(C(F)(F)F)c(Oc2cccc3c2C(=O)N(C)C3C)n1 (stereo not shown) [Compound 100] | –
< 10 | 4.86 | 2.26 | > 2000 | – | COc1cc(N2CC3(CCN(C)CC3)C2)ccc1Nc1ncc(C(F)(F)F)c(Oc2cccc3c2C(=O)N(C)C3(C)C)n1 [Compound 101] | –
< 10 | – | 3.01 | > 2000 | < 5 | COc1cc(N2CC3(CCNCC3)C2)ccc1Nc1ncc(C(F)(F)F)c(Oc2cccc3c2C(=O)N(C)C3)n1 [Compound 102] | –
< 10 | – | – | > 2000 | < 5 | [2H]C([2H])([2H])N1CCC2(CC1)CN(c1ccc(Nc3ncc(C(F)(F)F)c(Oc4cccc5c4C(=O)N(C)C5)n3)c(OC)c1)C2 [Compound 109, 7-((2-((2-methoxy-4-(7-(methyl-d3)-2,7-diazaspiro[3.5]non-2-yl)phenyl)amino)-5-(trifluoromethyl)pyrimidin-4-yl)oxy)-2-methylisoindolin-1-one] | –
< 10 | – | – | > 2000 | < 5 | COc1cc(N2CC3(CCN(C)CC3)C2)c(F)cc1Nc1ncc(Cl)c(Oc2cccc3c2C(=O)N(C)C3)n1 [Compound 110, 7-((5-chloro-2-((5-fluoro-2-methoxy-4-(7-methyl-2,7-diazaspiro[3.5]non-2-yl)phenyl)amino)pyrimidin-4-yl)oxy)-2-methylisoindolin-1-one] | –
< 10 | 1.78 | 1.62 | > 2000 | – | COc1cc(N2CC3(CCN(C)CC3)C2)ccc1Nc1ncc(Cl)c(Oc2cccc3c2C(=O)N(C)C3)n1 [Compound 111] | Change in body weight [5]: −1.4%; TGI (%) [5]: 87.4%; Change in body weight [6]: +21.07%; TGI (%) [6]: 47.67%; Change in body weight [7]: +6.08%; TGI (%) [7]: 82.32%
< 10 | 0.66 | 0.93 | > 2000 | – | COc1cc(N2CC3(CCN(C)CC3)C2)ccc1Nc1ncc(Br)c(Oc2cccc3c2C(=O)N(C)C3)n1 [Compound 112] | –
< 10 | 1.58 | 3.56 | > 2000 | – | COc1cc(N2CC3(CCN(C)CC3)C2)ccc1Nc1ncc(C#N)c(Oc2cccc3c2C(=O)N(C)C3)n1 [Compound 113] | –
< 10 | – | 2.63 | > 2000 | < 5 | COc1cc(N2CC3(CCN(C)CC3)C2)ccc1Nc1ncc([N+](=O)[O-])c(Oc2cccc3c2C(=O)N(C)C3)n1 [Compound 114] | –
< 10 | 67 | – | > 2000 | – | COc1cc(N2CC3(CCN(C)CC3)C2)ccc1Nc1ncc(F)c(Oc2cccc3c2C(=O)N(C)C3)n1 [Compound 115] | –
< 10 | – | – | > 2000 | < 5 | COc1cc(N2CCC3(CC2)CN(C)C3)ccc1Nc1ncc(Cl)c(Oc2cccc3c2C(=O)N(C)C3)n1 [Compound 116] | –
< 10 | – | – | > 2000 | < 5 | COc1cc(N2CCC3(CC2)CN(C)C3)ccc1Nc1ncc(Br)c(Oc2cccc3c2C(=O)N(C)C3)n1 [Compound 117] | –
